Patent US9326993B2, “Treatment of pulmonary and pleural fibrosis using HSP27 inhibitors” (ONCOGENEX TECHNOLOGIES INC., priority 2011, dated 2016)
Residues, ends and D or L forms follow the SMILES beside them. *: point of attachment. e = 2'-O-(2-methoxyethyl) (MOE); Cbz = O=C(OCc1ccccc1)*; d = 2'-deoxy (DNA)

What was measured:
[1] = system: human mesothelial Met-5A cells; assay: rTGF-β1-induced EMT in Met-5A cells (western blot, RT-PCR); format: cell-based; details: HSP27 siRNA-depleted cells plus proteasome inhibitor
Description: Mesothelial rat established cell line 4/4 RM4 cells (American Type Culture Collection—ATCC—Rockville, Md.) were seeded in Ham's F10 (Lonza), with FBS 15%. Mesothelial human established cell line MET-5A (ATCC) were seeded in Medium 199 (lonza), 1% L-glutamine, 1% penicillin-streptomycin with 10% FBS. Epithelial human cell line A549 cells (ATCC) and were seeded in Ham's F10 (lonza) with 10% FBS.
For EMT induction and analysis, all the different cells were exposed to their respective medium containing 10 ng/ml recombinant (r)TGF-β1 (R&D system, Lille, France) for 6, 12, 24, or 48 hours.
HSP27 siRNA were purchased from applied bios system (Courtaboeuf, France). The sense and antisense sequence were respectively: 5′-GUUCAAAGCAACCACCUGUtt-3 (SEQ ID No: 4)′ and 5′-ACAGGUGGUUGCUUUGAACtt-3′. (SEQ ID No: 5). They were used at a concentration of 50 nM. SiRNA were transfected using INTERFERin (polyplus, Illkirch, France) following the manufacturer recommendations. 5-6 hours after transfection medium were changed and cells were treated or not with 10 ng/ml TGF-β1 for 12, 24 or 48 hours. Seq ID No. 3 was used as a random control oligonucleotide.
(§1) Protein extraction was made using triton X 100 during 30 min at 4° C., vortexing every 10 min. Protein dosage is made with the modified lowry kit (Biorad, Marne-la-Coquette, France). Equal amounts of protein (30-50 μg) were electrophoresed through 8 to 12% SDS polyacrylamide gels. The separate protein bands were transferred onto a PVDF membrane. The non-specific sites were saturated with a solution of PBS-tween 0.1%, nonfat milk 8%. Membranes were incubated with primary Abs over night at 4° C. Secondary Abs IgG linked to HRP (HorseRadish Peroxidase, Jackson ImmunoResearch Laboratories, PA, USA) were used at a concentration of 1/5000. Enhanced ChemiLuminescent substrat (ECL, santa cruz biotechnology, CA, USA) was used to detect the protein of interest. […]
Total RNA was extracted using TRIzol (Invitrogen, Cergy Pontoise, France) from MET-5A and A549 cells treated or not with rTGF-β1 12 or 24 hours and transfected or not by HSP27 siRNA or plasmid encoding HSP27. […] Quantitative RT-PCR was performed on the cDNA using the SYBR green master mix (promega, Charbonnieres, France). […]

HSP27 = details: cited from earlier work
[2] = system: human mesothelial Met-5A cells; assay: Induction of HSP27 overexpression in Met-5A cells; format: cell-based
Description: To study the involvement of HSP27 in the EMT process, we induced the overexpression of HSP27 in the human mesothelial Met-5A cells by three different methods: heat shock, staurosporine treatment, and transfection with a plasmid encoding HSP27. […] (Brunet Simioni et al., Oncogene 2009; 28:3332-44) A more specific overexpression was obtained by HSP27 cDNA transfection. […] Conversely, siRNA-meditated depletion of HSP27 inhibits rTGF-β1 induced α-SMA in human […] Met-5A cells and epithelial A549 cells. This decrease in α-SMA content induced by HSP27 depletion seems to be, at least in part, the result of its proteasomal degradation because in the presence of an inhibitor of the proteasome, such as MG132, α-SMA levels were restored

[3] = system: AdTGF-β1 induced pleural and subpleural fibrosis model in rats; assay: AdTGF-β1 induced pleural and subpleural fibrosis model; format: in vivo, rat; details: for reduction in the lungs volume compared to AdDL administered animals: RCL2 volume, 10 min at 20 cm H20
Description: For experiments on pleural fibrosis we used AdTGF-β1223/225, an adenovirus construct with a mutant TGF-β1 translated into spontaneously bioactive TGF-β1 (AdTGFβ1) and control vectors (AdDL) with no insert in the deleted E1 region. The construction of adenoviral vectors is described in detail elsewhere (DeCologne, 2007, supra; Bett et al. Proc Natl Acad Sci USA 1994; 91:8802-6; Sime et al., J Clin Invest 1997; 100:768-76)
Female Sprague-Dawley rats (Charles River Laboratories) weighing 200-225 g were housed in special pathogen-free conditions. Rodent laboratory food and water were provided ad libitum. The animals were treated in accordance to the guidelines of the Ministère de la Recherche et de laTechnologie (Paris, France). All experiments were approved by the Comitéd'Ethique de l'Universite´ de Bourgogne (Bourgogne, France). All animal procedures were performed with inhalation anesthesia with isoflurane (TEM, Lormont, France). Adenovector administrations were performed by intrapleural injection in 800 μl of NaCl0.9% containing a total of 1.3×10^9 PFU AdTGF-β1, AdDL or AdLacZ. The intrapleural injection protocol was described in details elsewhere (DeCologne, 2007, supra)).
12 mg/kg of control ASO and OGX-427 were daily administrated by intrapleural injection during 5 days after adenoviral administration. Rats were euthanized by abdominal aortic bleeding and lungs were harvested and processed following what was previously described in Decologne et al (DeCologne, 2007, supra)).
Immunohistochemitry: Inflated lungs were transversally cut and paraffin embedded. 5 μm section were performed and stain with primary antibodies (Ab), Mouse monoclonal anti-α-SMA (Sigma, St Quentin Fallavier, France, 1/200), rabbit polyclonal anti-HSP27 (EnzoLife Science, Villeurbanne, France, 1/200) and rabbit polyclonal cleaved caspase 3 (cell signaling, Saint Quentin, France, 1/100). Secondary Abs used were respectively, a goat anti-mouse IgG biotin conjugated and a goat anti-rabbit IgG biotin conjugated. After peroxidase inhibition (PBS plus H2O2, 20 min), lung section were incubated over night at 4° C. with primary ab. Tissue section were after PBS 1× (Phosphate Buffer Saline) wash incubated with the secondary ab (1/500) 45 min. The streptavidin-HRP complex (Jackson ImmunoResearch Laboratories, PA, USA, 1/500) was used 45 min at room temperature. 3-Amino-9-ethylcarbazole/hydrogen peroxide was used as chromagen substrate. Slides were counterstained with hematoxylin.
Total human TGF-β1 was determined from pleural lavage fluid (PLF) using ELISA (R&D Systems, Lille, France), performed according to the recommendations of the manufacturer. The sensitivity of this assay was 7 pg·mL-1.
To assess the role of HSP27 inhibition in the process of fibrogenesis in vivo, we administered OGX427 or its control ASO in the pleural cavity in our AdTGF-β1 induced pleural and subpleural fibrosis model in rats. The concentrations of ASO control and OGX-427 used were those previously described in studies of bladder cancer where the oligonucleotides were administered intra-vesically. (Matsui et al. Mol Cancer Ther 2009; 8:2402-11)
After AdTGF-β1 or AdDL intrapleural administration, rats were daily treated with the ASO control or OGX427 during […] by intra pleural injection. We first confirmed by an ELISA technique that the content on TGF-β1 after AdTGF-β1 intrapleural administration was similar in the pleural lavage fluid (PLF) from all rats, those treated with OGX427 and those treated with a control ASO (FIG. 4A). […] (FIG. 4B)
To determine lung activity, lung volumes were assessed by measuring the volume of RCL2 (fixation solution) that drained into the lungs after 10 min at a constant pressure of 20 cm H20. Compared to AdDL administered animals, AdTGF-β1 administration in ASO control rats induced a reduction in the lungs volume of 55%. […] This effect for the HSP27 inhibitor was only observed in the TGF-β1-exposed animals. […]

[4] = system: Mesothelial rat primary cells; assay: Spontaneous EMT of primary mesothelial cells over culture passages; format: cell-based
Description: For primary cell harvesting, 8 ml of HBSS (Lonza, Paris, France) were injected in the pleural cavity through the diaphragm then removed and followed by a 10 ml trypsin 5%, EDTA 0.4% administration for 30 min. This lavage was removed and placed in 30 ml of DMEM (Dulbecco's Modified Eagle Medium, Lonza) with 15% FBS (Fetal Bovine Serum, Lonza). After centrifugation (1300 rpm, 5 minutes), the cell pellet was re-suspended into 5 ml DMEM, FBS 15% and placed at 37° C., 5% CO2.
Mesothelial rat primary cells were grown in Dulbecco's Modified Eagle's Medium (DMEM) 1% L-glutamine, 1% penicillin-streptomycin with 15% Fetal Bovine Serum (FBS. Lonza, Paris, France). Cells were assessed before culture and from passage 1 to 4.
as §1

With `CC(C)C[C@@H](C=O)NC(=O)[C@H](CC(C)C)NC(=O)[C@H](CC(C)C)NC(=O)OCc1ccccc1` [MG132] (Cbz-Leu-Leu-Leu-aldehyde) the “α-SMA levels after HSP27 depletion” value [1] was “restored”.
For `CC(=O)O[C@H]1C(=O)[C@@]2(C)[C@H]([C@H](OC(=O)c3ccccc3)[C@]3(O)C[C@H](OC(=O)[C@H](O)[C@@H](NC(=O)c4ccccc4)c4ccccc4)C(C)=C1C3(C)C)[C@]1(OC(C)=O)CO[C@@H]1C[C@@H]2O` [Paclitaxel], the HSP27 expression/levels (HSP27) is listed as “inhibitor of hsp27 expression”.
With `CN[C@@H]1C[C@H]2O[C@@](C)([C@@H]1OC)n1c3ccccc3c3c4c(c5c6ccccc6n2c5c31)C(=O)NC4` [staurosporine] the HSP27 induction [2] was “efficient inducers of HSP27” and the α-SMA expression/content ([2]; after HSP27 overexpression) was “increase”.
In the case of “ASO control: control oligonucleotide having the sequence CCTTCCCTGAAGGTTCCTCC, also known as ISIS 141923 (listed as DNA, chemistry not given here)”, the “reduction in the lungs volume compared to AdDL administered animals” value ([3]; AdTGF-β1 rats) is reported as 55%.
In the case of “OGX-427: 4-12-4 2′-MOE gapmer antisense oligonucleotide with phosphorothiolated linkages targeting HSP27, made by OncoGenex (Seq. ID No. 2) (antisense GGGACGCGGCGCTCGGTCAT; sugars from the 5' end e4 d12 e4, all C 5-methyl, all phosphorothioate, T or U not given here; listed as Homo sapiens)”, the “increased expression of HSP27 with cell passages” value ([4]; vs ASO control) is reported as “blocked”, the “increased expression of α-SMA with cell passages” value ([4]; vs ASO control) is reported as “blocked” and the “cell shape (mesothelial phenotype)” value ([4]; vs control ASO) is reported as “kept their mesothelial phenotypic shape”. For the same compound, the “lung volumes in AdDL-administered animals, ASO control vs OGX 427” value ([3]; AdDL rats (no TGF-β1)) was “no difference”, the “mesothelial cell migration within the subpleural parenchyma” value ([3]; AdTGF-β1 + AdLacZ rats) was “no mesothelial cell migration” and the “morphology of the mesothelial cells” value ([3]; AdTGF-β1 + AdLacZ rats) was “did not change”. For the same compound, the “pleural fibrosis (histological evaluation)” value ([3]; AdTGF-β1 rats) was “minor pleural fibrosis”, the “HSP27 expression in lungs” value ([3]; AdTGF-β1 rats, histology) was “very significant decrease” and the “α-SMA expression in lungs” value ([3]; AdTGF-β1 rats, histology) was “very significant decrease”. The “pleural collagen quantified from microscopic images” value ([3]; AdTGF-β1 rats, vs control antisense) was “substantial reduction”, the “reduction in the lungs volume compared to AdDL administered animals” value ([3]; AdTGF-β1 rats) was 35% and the “HSP27 expression in PLF (western blot)” value ([3]; AdTGF-β1 rats, intra-pleural administration) was “strongly blocked”. The “TGF-β1 content in pleural lavage fluid (ELISA)” value ([3]; after AdTGF-β1 intrapleural, 12 mg/kg daily intrapleural, vs control ASO) was “similar” and the “amount of fibrosis in the pulmonary parenchyma” value ([3]; collagen in parenchymal subpleural areas) was “reduces the amount of fibrosis”.
In the case of “interferon-γ: cytokine shown to downregulate expression of HSP27”, the HSP27 expression/levels (HSP27) is listed as “downregulate expression of HSP27”.
